Patent US11407767B2, “Heterocyclyl substituted pyrrolopyridines that are inhibitors of the CDK12 kinase” (The University of Nottingham, priority 2017, dated 2022)

How the values were obtained:
CDK12/CycK = CDK12/CycK (Homo sapiens, UniProt Q9NYV4); assay: Inhibition of CDK12 (ADP-Glo kinase assay); format: biochemical; settings: 60 nM CDK12/CycK, 30 minutes pre-incubation, 1 μM ATP, 0.5 μM RBER-IRStide substrate, 1 h at 25° C., read-out: CDK12/cyclin K IC50
Procedure, shortened: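 ADP-Glo luminescence read after a 1 h, 25 °C reaction with 1 μM ATP and 0.5 μM RBER-IRStide peptide. Enzyme (60 nM) and compound were first pre-incubated 30 min; buffer 50 mM HEPES pH 7.5, 20 mM MgCl2, 3 mM MnCl2, 1% DMSO. IC50 fitted after blank subtraction.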

DM1 fibroblasts = assay: Nuclear foci assay; format: cell-based; settings: Fibroblast; DM1 fibroblasts treated for 24 hours, 11 point dilution 20 μM-19 nM, in situ hybridisation with cy3 labelled CAG10 probe
Method: DM1 fibroblasts were treated with compounds in an 11 point dilution series from 20 μM-19 nM for 24 hours. Following treatment, fluorescent in situ hybridisation was performed with a cy3 labelled CAG10 probe, to visualize nuclear foci and cells were analysed on a Molecular Devices plate reader with customised MetaExpress software (Ketley, A. et al. (2014). Hum Mol Genet, 23: 1551-1562). Compounds that reduced nuclear foci in a concentration dependent manner, compared to DMSO treated cells were identified.

Sequence of CDK12/CycK (Q9NYV4 whole entry): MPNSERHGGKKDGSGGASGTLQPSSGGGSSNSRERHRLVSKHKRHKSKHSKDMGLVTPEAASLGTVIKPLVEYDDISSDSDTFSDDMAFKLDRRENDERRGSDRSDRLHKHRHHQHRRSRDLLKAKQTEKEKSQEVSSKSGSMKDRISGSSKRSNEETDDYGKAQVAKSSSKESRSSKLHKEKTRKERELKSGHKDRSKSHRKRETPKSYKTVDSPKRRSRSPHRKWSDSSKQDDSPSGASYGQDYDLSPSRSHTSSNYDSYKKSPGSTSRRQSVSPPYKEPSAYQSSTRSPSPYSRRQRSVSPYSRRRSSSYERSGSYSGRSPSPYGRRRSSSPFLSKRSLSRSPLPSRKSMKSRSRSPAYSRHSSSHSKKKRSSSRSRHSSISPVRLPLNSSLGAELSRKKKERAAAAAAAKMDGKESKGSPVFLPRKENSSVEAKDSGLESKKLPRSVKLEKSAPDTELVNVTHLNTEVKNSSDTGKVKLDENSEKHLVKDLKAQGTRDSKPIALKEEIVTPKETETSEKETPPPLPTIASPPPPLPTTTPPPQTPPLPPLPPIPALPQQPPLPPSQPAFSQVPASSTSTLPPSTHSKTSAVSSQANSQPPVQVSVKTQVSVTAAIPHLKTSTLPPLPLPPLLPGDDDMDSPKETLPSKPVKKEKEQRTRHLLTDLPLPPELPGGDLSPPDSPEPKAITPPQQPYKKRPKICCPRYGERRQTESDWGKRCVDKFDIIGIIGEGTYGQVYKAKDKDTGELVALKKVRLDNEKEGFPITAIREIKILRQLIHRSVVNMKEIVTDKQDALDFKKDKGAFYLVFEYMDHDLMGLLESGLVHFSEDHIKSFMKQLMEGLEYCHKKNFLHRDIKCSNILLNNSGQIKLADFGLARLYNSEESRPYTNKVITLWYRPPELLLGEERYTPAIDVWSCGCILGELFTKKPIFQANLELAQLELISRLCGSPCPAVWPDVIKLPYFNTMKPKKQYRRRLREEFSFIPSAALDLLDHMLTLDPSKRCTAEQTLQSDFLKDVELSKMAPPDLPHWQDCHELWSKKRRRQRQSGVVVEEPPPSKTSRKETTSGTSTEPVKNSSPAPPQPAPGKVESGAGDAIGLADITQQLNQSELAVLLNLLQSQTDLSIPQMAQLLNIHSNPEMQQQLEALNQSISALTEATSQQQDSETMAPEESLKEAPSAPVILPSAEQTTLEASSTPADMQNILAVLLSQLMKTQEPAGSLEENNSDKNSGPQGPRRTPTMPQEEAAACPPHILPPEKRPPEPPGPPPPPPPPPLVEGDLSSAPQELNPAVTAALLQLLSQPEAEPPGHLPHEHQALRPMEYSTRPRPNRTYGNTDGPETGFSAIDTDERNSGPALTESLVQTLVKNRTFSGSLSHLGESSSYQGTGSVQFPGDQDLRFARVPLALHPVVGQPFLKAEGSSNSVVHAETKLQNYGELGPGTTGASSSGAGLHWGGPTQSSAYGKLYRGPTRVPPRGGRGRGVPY
Sequence of CDK12/CycK (O75909 whole entry partner): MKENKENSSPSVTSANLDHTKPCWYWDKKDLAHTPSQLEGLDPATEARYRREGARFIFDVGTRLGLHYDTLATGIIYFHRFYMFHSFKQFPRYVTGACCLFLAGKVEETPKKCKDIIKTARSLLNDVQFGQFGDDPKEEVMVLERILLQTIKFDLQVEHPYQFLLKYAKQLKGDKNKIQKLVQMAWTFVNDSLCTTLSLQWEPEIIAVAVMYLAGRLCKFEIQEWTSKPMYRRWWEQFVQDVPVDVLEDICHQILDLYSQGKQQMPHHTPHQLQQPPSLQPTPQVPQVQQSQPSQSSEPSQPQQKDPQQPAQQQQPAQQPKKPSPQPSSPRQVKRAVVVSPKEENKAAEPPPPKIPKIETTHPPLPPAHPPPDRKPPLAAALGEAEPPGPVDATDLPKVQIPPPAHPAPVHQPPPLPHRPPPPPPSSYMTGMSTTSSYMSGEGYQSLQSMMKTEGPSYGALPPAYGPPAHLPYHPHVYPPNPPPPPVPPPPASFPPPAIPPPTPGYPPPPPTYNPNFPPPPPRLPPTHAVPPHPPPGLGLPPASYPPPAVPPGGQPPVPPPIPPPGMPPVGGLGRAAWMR

| Structure (SMILES) | IC50 (CDK12/CycK) [µM] | IC50 (DM1 fibroblasts) [µM] |
| --- | --- | --- |
| CN(C)C/C=C/C(=O)N1CCC[C@@H](C(=O)N2CCC(c3cc4c(-c5cnn6ncccc56)ccnc4[nH]3)C2)C1 (stereo partly drawn) [Example 72, (E)-4-(Dimethylamino)-1-((3R)-3-(3-(4-(pyrazolo[1,5-b]pyridazin-3-yl)-1H-pyrrolo[2,3-b]pyridin-2-yl)pyrrolidine-1-carbonyl)piperidin-1-yl)but-2-en-1-one] | 0.1 to 1 | 1 to 10 |
| C=CC(=O)Nc1ccc(C(=O)N2CCC(c3cc4c(-c5c[nH]c6ccccc56)ccnc4[nH]3)C2)cc1 (centres unmarked) [Example 129, N-(4-(3-(4-(1H-Indol-3-yl)-1H-pyrrolo[2,3-b]pyridin-2-yl)pyrrolidine-1-carbonyl)phenyl)acrylamide] | < 0.1 | 1 to 10 |
| Cc1cc2c(-c3cnn4ncccc34)ccnc2[nH]1 [Example 27, 3-(2-Methyl-1H-pyrrolo[2,3-b]pyridin-4-yl)pyrazolo[1,5-b]pyridazine] | 0.1 to 1 | < 1 |
| CN(C)C/C=C/C(=O)N1CCC(CC(=O)N2CCC(c3cc4c(-c5cnn6ncccc56)ccnc4[nH]3)C2)CC1 (centres unmarked) [Example 69, (E)-4-(Dimethylamino)-1-(4-(2-oxo-2-(3-(4-(pyrazolo[1,5-b]pyridazin-3-yl)-1H-pyrrolo[2,3-b]pyridin-2-yl)pyrrolidin-1-yl)ethyl)piperidin-1-yl)but-2-en-1-one] | 0.1 to 1 | 10 to 100 |
| C=CC(=O)Nc1ccc(C(=O)N2CCC(c3cc4c(-c5cnn6ncccc56)ccnc4[nH]3)C2)cc1 (centres unmarked) [Example 126, N-(4-(3-(4-(Pyrazolo[1,5-b]pyridazin-3-yl)-1H-pyrrolo[2,3-b]pyridin-2-yl)pyrrolidine-1-carbonyl)phenyl)acrylamide] | < 0.1 | < 1 |
| COc1ccc2c(-c3ccnc4[nH]ccc34)cnn2n1 [Example 22, 6-Methoxy-3-(1H-pyrrolo[2,3-b]pyridin-4-yl)pyrazolo[1,5-b]pyridazine] | 1 to 30 | 10 to 100 |
| C=CC(=O)Nc1ccc(C(=O)NCCc2cc3c(-c4cnn5ncccc45)ccnc3[nH]2)cc1 [Example 76, 4-Acrylamido-N-(2-(4-(pyrazolo[1,5-b]pyridazin-3-yl)-1H-pyrrolo[2,3-b]pyridin-2-yl)ethyl)benzamide] | < 0.1 | < 1 |
| O=C(CCl)Nc1cccc(C(=O)N2CC[C@@H](c3cc4c(-c5cnn6ncccc56)ccnc4[nH]3)C2)c1 [Example 159, (R)-2-Chloro-N-(3-(3-(4-(pyrazolo[1,5-b]pyridazin-3-yl)-1H-pyrrolo[2,3-b]pyridin-2-yl)pyrrolidine-1-carbonyl)phenyl)acetamide] | < 0.1 | < 1 |
| c1cnn2ncc(-c3ccnc4[nH]ccc34)c2c1 [Example 28, 3-(1H-Pyrrolo[2,3-b]pyridin-4-yl)pyrazolo[1,5-b]pyridazine] | 0.1 to 1 | < 1 |
| c1ccc(Cc2cc3c(-c4cnn5ncccc45)ccnc3[nH]2)cc1 [Example 10, 3-(2-Benzyl-1H-pyrrolo[2,3-b]pyridin-4-yl)pyrazolo[1,5-b]pyridazine] | 1 to 30 | 10 to 100 |
| C=CC(=O)Nc1cccc(C(=O)N2CCN(Cc3cc4c(-c5cnn6ncccc56)ccnc4[nH]3)CC2)c1 [Example 111, N-(3-(4-((4-(Pyrazolo[1,5-b]pyridazin-3-yl)-1H-pyrrolo[2,3-b]pyridin-2-yl)methyl)piperazine-1-carbonyl)phenyl)acrylamide] | 0.1 to 1 | 1 to 10 |
| CN(C)C/C=C/C(=O)Nc1cccc(C(=O)NCCc2cc3c(-c4cnn5ncccc45)ccnc3[nH]2)c1 [Example 200, (E)-3-(4-(Dimethylamino)but-2-enamido)-N-(2-(4-(pyrazolo[1,5-b]pyridazin-3-yl)-1H-pyrrolo[2,3-b]pyridin-2-yl)ethyl)benzamide] | 0.1 to 1 | 10 to 100 |
| O=C([C@H]1CCCN1C(=O)CCl)N1CCC(c2cc3c(-c4cnn5ncccc45)ccnc3[nH]2)C1 (stereo partly drawn) [Example 156, 2-Chloro-1-((2R)-2-(3-(4-(pyrazolo[1,5-b]pyridazin-3-yl)-1H-pyrrolo[2,3-b]pyridin-2-yl)pyrrolidine-1-carbonyl)pyrrolidin-1-yl)ethan-1-one] | < 0.1 | < 1 |
| O=C(CCl)Nc1ccc(C(=O)N2CCC(c3cc4c(-c5cnn6ncccc56)ccnc4[nH]3)C2)cc1 (centres unmarked) [Example 144, 2-Chloro-N-(4-(3-(4-(pyrazolo[1,5-b]pyridazin-3-yl)-1H-pyrrolo[2,3-b]pyridin-2-yl)pyrrolidine-1-carbonyl)phenyl)acetamide] | < 0.1 | < 1 |

More lines, main results first:

| IC50 (CDK12/CycK) [µM] | Structure (SMILES) | IC50 (DM1 fibroblasts) [µM] |
| --- | --- | --- |
| 1 to 30 | C=C(C)C(=O)N1CCC[C@H]1C(=O)NCCc1cc2c(-c3cnn4ncccc34)ccnc2[nH]1 [Example 43, (S)-1-Methacryloyl-N-(2-(4-(pyrazolo[1,5-b]pyridazin-3-yl)-1H-pyrrolo[2,3-b]pyridin-2-yl)ethyl)pyrrolidine-2-carboxamide] | 10 to 100 |
| 1 to 30 | C=CC(=O)N1CCC[C@H]1C(=O)N1CCN(Cc2cc3c(-c4cnn5ncccc45)ccnc3[nH]2)CC1 [Example 113, (S)-1-(2-(4-((4-(Pyrazolo[1,5-b]pyridazin-3-yl)-1H-pyrrolo[2,3-b]pyridin-2-yl)methyl)piperazine-1-carbonyl)pyrrolidin-1-yl)prop-2-en-1-one] | 10 to 100 |
| < 0.1 | C=CC(=O)N1CCC1C(=O)NCCc1cc2c(-c3cnn4ncccc34)ccnc2[nH]1 (single isomer, unassigned) [Example 39] | < 1 |
| < 0.1 | C=CC(=O)N1CCC[C@H]1C(=O)NCCc1cc2c(-c3cnn4ncccc34)ccnc2[nH]1 [Example 32, (S)-1-Acryloyl-N-(2-(4-(pyrazolo[1,5-b]pyridazin-3-yl)-1H-pyrrolo[2,3-b]pyridin-2-yl)ethyl)pyrrolidine-2-carboxamide] | < 1 |
| < 0.1 | C=CC(=O)N1CC(C(=O)NCCc2cc3c(-c4cnn5ncccc45)ccnc3[nH]2)C1 [Example 37, 1-Acryloyl-N-(2-(4-(pyrazolo[1,5-b]pyridazin-3-yl)-1H-pyrrolo[2,3-b]pyridin-2-yl)ethyl)azetidine-3-carboxamide] | 1 to 10 |
| 1 to 30 | CCC(=O)N1CCC[C@H]1C(=O)NCCc1cc2c(-c3cnn4ncccc34)ccnc2[nH]1 [Example 73, (S)-1-Propionyl-N-(2-(4-(pyrazolo[1,5-b]pyridazin-3-yl)-1H-pyrrolo[2,3-b]pyridin-2-yl)ethyl)pyrrolidine-2-carboxamide] | 10 to 100 |
| 0.1 to 1 | CC#CC(=O)N1CCC[C@H]1C(=O)NCCc1cc2c(-c3cnn4ncccc34)ccnc2[nH]1 [Example 83, (S)-1-(But-2-ynoyl)-N-(2-(4-(pyrazolo[1,5-b]pyridazin-3-yl)-1H-pyrrolo[2,3-b]pyridin-2-yl)ethyl)pyrrolidine-2-carboxamide] | 1 to 10 |
| < 0.1 | C=CC(=O)N1CCC[C@H](C(=O)NCCc2cc3c(-c4cnn5ncccc45)c(Cl)cnc3[nH]2)C1 [Example 55, (S)-1-Acryloyl-N-(2-(5-chloro-4-(pyrazolo[1,5-b]pyridazin-3-yl)-1H-pyrrolo[2,3-b]pyridin-2-yl)ethyl)piperidine-3-carboxamide] | 1 to 10 |
| < 0.1 | C=CC(=O)N1CCOC[C@@H]1C(=O)NCCc1cc2c(-c3cnn4ncccc34)ccnc2[nH]1 [Example 63, (R)-4-Acryloyl-N-(2-(4-(pyrazolo[1,5-b]pyridazin-3-yl)-1H-pyrrolo[2,3-b]pyridin-2-yl)ethyl)morpholine-3-carboxamide] | < 1 |
| 0.1 to 1 | N#CN1CCC[C@H](C(=O)NCCc2cc3c(-c4cnn5ncccc45)ccnc3[nH]2)C1 [Example 210, (S)-1-cyano-N-(2-(4-(pyrazolo[1,5-b]pyridazin-3-yl)-1H-pyrrolo[2,3-b]pyridin-2-yl)ethyl)piperidine-3-carboxamide] | 1 to 10 |
| 1 to 30 | CN(C)C/C=C/C(=O)N1CCC[C@H]1C(=O)NCCc1cc2c(-c3cnn4ncccc34)ccnc2[nH]1 [Example 84, (S,E)-1-(4-(Dimethylamino)but-2-enoyl)-N-(2-(4-(pyrazolo[1,5-b]pyridazin-3-yl)-1H-pyrrolo[2,3-b]pyridin-2-yl)ethyl)pyrrolidine-2-carboxamide] | 10 to 100 |
| < 0.1 | C=CC(=O)N1CCC[C@H](C(=O)NCCc2cc3c(-c4cnn5ncccc45)ccnc3[nH]2)C1 [Example 35, (S)-1-acryloyl-N-(2-(4-(pyrazolo[1,5-b]pyridazin-3-yl)-1H-pyrrolo[2,3-b]pyridin-2-yl)ethyl)piperidine-3-carboxamide] | < 1 |
| < 0.1 | C=CC(=O)N1C[C@H](F)C[C@H]1C(=O)NCCc1cc2c(-c3cnn4ncccc34)ccnc2[nH]1 [Example 207, (2S,4R)-1-Acryloyl-4-fluoro-N-(2-(4-(pyrazolo[1,5-b]pyridazin-3-yl)-1H-pyrrolo[2,3-b]pyridin-2-yl)ethyl)pyrrolidine-2-carboxamide] | < 1 |
| 0.1 to 1 | CC(C)(CCl)C(=O)N1CCC[C@H]1C(=O)NCCc1cc2c(-c3cnn4ncccc34)ccnc2[nH]1 [Example 45, (S)-1-(3-Chloro-2,2-dimethylpropanoyl)-N-(2-(4-(pyrazolo[1,5-b]pyridazin-3-yl)-1H-pyrrolo[2,3-b]pyridin-2-yl)ethyl)pyrrolidine-2-carboxamide] | 10 to 100 |
